US20130171073A1 (CEDARS-SINAI MEDICAL CENTER, priority 2010, published 2013)
Entries after “also recorded” stand apart in the source; their conditions may differ.

Experiments:
[1] = system: pituitary POMC cells overexpressing zPttg; test: In vivo treatment of Tg:Pomc-Pttg; POMC-eGFP zebrafish embryos with CDK inhibitors, pituitary POMC-eGFP fluorescence; details: for reduction in pituitary POMC-eGFP expression compared with controls: 50 μM in embryo medium, control 0.2% DMSO
Experimental: (§1) Results represent one of three similar experiments.
(§2) WT and transgenic embryos were examined at various developmental stages under a fluorescein isothiocyanate filter on an Axioplan-2 microscope (Carl Zeiss). Live embryo images were generated with an Axiocam video system (Carl Zeiss). Fluorescence intensity of POMC-GFP-positive cells was measured by the area of interest function in Openlab software (Improvision). For confocal imaging, images were captured in a Z-series by using a TCS SP confocal microscope (Leica Microsystems). GFP was detected at a spectral range from 507 to 550 nm, RFP from 585 to 690 nm, and DAPI from 460 to 480 nm. Images were prepared using Leica LCS lite, Volocity 5.2 (Improvision), and Photoshop 7.0 (Adobe). Pituitary GFP and RFP intensity and area were measured using Volocity 5.2 (Improvision). Lipid Staining Liver cryosections were stained with oil redO (Sigma-Aldrich) per manufacturer's protocol. Lipid staining was scored based upon area distribution (>50% positive cells, 2 points; <50% but >10%, 1 point; <10%, 0 points) and intensity [strong, large (size of cell) lipid droplets, 2 points; weak, small (smaller than cell size) lipid droplets, 1 point; negative, 0 points].

AtT20 cells [2] = test: Senescence (β-galactosidase expression) in AtT20 cells; details: 10 μM, 48 hours
AtT20 cells [3] = test: ACTH radioimmunoassay of AtT20 culture medium; details: AtT20 cells vs vehicle
[4] = system: AtT20 corticotroph tumor xenografts; test: AtT20 corticotroph tumor xenograft in athymic nude mice, tumor growth and tumor protein expression; details: 150 mg/kg oral gavage twice daily
Experimental: (§3) Athymic nude mice were subcutaneously inoculated with corticotroph tumor AtT20 cells (1×10^5 cells). […] (D) Blood was collected from each animal for measurement of plasma ACTH and serum corticosterone levels.
Animal experiments were performed in accordance with Cedars-Sinai Institutional Animal Care and Use committee guidelines. Mouse corticotroph tumor AtT20 cells (−1×10^5) were inoculated s.c. into 6-wk-old female nu/nu mice. […] After 3 wk of treatment, mice were killed by CO2 inhalation, and tumors were dissected, weighted, and snapfrozen for further analysis.
Protein samples were prepared in RIPA buffer (Sigma), separated on NuPAGE Novex Bis-Tris Gels (Invitrogen), and transferred onto PVDF membrane (Millipore) before blotting with primary antibody [cyclin E, 1:500 (Abcam); PTTG, 1:1,000 (Abcam); β-actin, 1:5,000 (Sigma); and p21, 1:1,000, p27, 1:500, p57, 1:1,000, pRb821, 1:1,000 (Santa Cruz Biotechnology)] at 4° C. overnight. After washes with 0.5% Tween-20 in Tris-buffered saline solution, membranes were incubated with horseradish peroxidaselinked secondary antibody (GE Healthcare) and developed using ECL Western blotting detection reagents (GE Healthcare).

[5] = system: pituitary lactotrophs (Prl-RFP); test: In vivo treatment of Tg:Pomc-Pttg; Prl-RFP zebrafish embryos, pituitary Prl-RFP fluorescence; details: 50 μM, 18 to 48 hpf
Experimental: as §1, §2

[6] = system: mouse pituitary ACTH-secreting tumor AtT20 cell line; test: Wst-1 cell proliferation assay in AtT20 cells; details: 1−2×10^−5 M
zebrafish embryos = test: Gross morphology / development of zebrafish embryos exposed to CDK inhibitors; details: 50 μM, starting at 18 hpf, observed by 40 hpf
Experimental: (C) In vivo treatment of Tg:Pomc-Pttg; Pomc-eGFP embryos with different small molecule CDK inhibitors (50 μM) or 0.2% DMSO as control from 18-40 hpf. 100-150 embryos were treated with each compound at a time. Representative images of live embryos are shown with gross morphology (right panels) and pituitary Pomc-GFP positive cells at higher magnification (left panels) at 40 hpf. […] (D) Relative expression of pituitary Pomc-eGFP fluorescence were analyzed using Velocity 5.2 (Improvision) (mean±SE of relative expression, n=7 randomly picked embryos from 100-150 embryos of each group). […] Results represent one of three similar experiments. Scale bar, 50 μm. *, p<0.02; **, p<0.000005.
Tg:Pomc-Pttg; POMC-eGFP double transgenic embryos were exposed to each compound added to the embryo culture medium.
Dexamethasone (Sigma) was dissolved in distilled water, R-roscovitin (Selleck Chemicals), flavopiridol (Selleck Chemicals), PD0332991 (Selleck Chemicals), olomoucine (Cayman Chemical Co.), and CAY10578 (Cayman Chemical Co.) were dissolved in 0.2% DMSO at a stock concentration of 1 mM, and diluted in fish medium immediately before adding to live embryos at the stages indicated.

[7] = system: AtT20 corticotroph tumor xenografts; test: Plasma ACTH and serum corticosterone in AtT20 xenograft-bearing nude mice; details: 150 mg/kg oral gavage twice daily, three weeks
Text: as §3
Mouse corticotroph tumor AtT20 cells (−1×10^5) were inoculated s.c. into 6-wk-old female nu/nu mice. […] After 3 wk of treatment, mice were killed by CO2 inhalation, and tumors were dissected, weighted, and snapfrozen for further analysis.

[8] = Insulin tolerance test in adult zebrafish; type: in vivo; details: 0.1 unit/100 mg
Experimental: Zebrafish glucocorticoid steroidogenic cells are arranged as epithelial cell layers (arrowheads) in association with the renal head posterior cardinal vein (PCV) 28. […] Glucose tolerance tests were performed in 72 Tg:pomc-pttg and WT fish. Zebrafish was given ad lib feeding of regular diet for one hour (grey column) after 16 hours of fasting. Blood glucose was measured at different time points after re-feeding. Glucose levels are presented as mean±SE (AUC, p<0.0001). (C) Insulin tolerance tests in Tg:pomc-pttg and WT fish. […] (D) Oil red O(ORO) staining of liver sections reveal hepatic lipid accumulation in Tg:Pomc-pttg transgenics. (E) Area distribution and intensity of hepatic ORO staining were scored (mean±SE, *, p<0.01). […] Top, Tg:Pomc-pttg zebrafish (Tg) with gross pericardial fluid accumulation (arrow) compared with wildtype (WT) at 24 months. […]
To determine the metabolic impact of hypercortisolism in Tg:Pomc-Pttg zebrafish, adult Tg:Pomc-Pttg and WT fish were subjected to 16 hour fasting followed by ad libitum feeding of regular diet for one hour. […] Because teleost fish are glucose intolerant due to blunted peripheral responses to insulin^29, and glucocorticoids induce insulin resistance in mammals, insulin sensitivity was assessed by testing blood glucose responses to intraperitoneally administered insulin. […]

[9] = 18-40 hpf, Tg:Pomc-Pttg, POMC-eGFP embryos

## O=C1NCCc2[nH]c(-c3ccncc3)cc21 [CAY10572]
[1]; 50 μM, 18-40 hpf, Tg:Pomc-Pttg, POMC-eGFP embryos
  change in pituitary POMC-eGFP expression compared with controls: no significant change

## CC[C@H](CO)Nc1nc(NCc2ccccc2)c2ncn(C(C)C)c2n1 [R-roscovitine]
AtT20 cells [2]
  β-galactosidase expression (senescence): increased
AtT20 cells [3]
  ACTH concentration in culture medium (RIA): decreased
[4]; 3 weeks
  numbers of PCNA and ACTH co-expressing cells in tumors: decreased
[4]; 5 days per week, 3 weeks
  tumor volumes: decreased
[4]; 5 days per week, three weeks
  weight reduction of dissected tumor xenografts: ~50%
[4]; 5 days per week, three weeks, vehicle 40.0±4.7 mg, n=13-14
  weight of dissected tumor xenografts (mean±S.E.): 21.0 ± 2.6 mg
[4]; three weeks
  ACTH protein expression in tumor specimens (Western-blot and immunohistochemistry): suppressed
  PCNA protein expression in tumor specimens (Western-blot and immunohistochemistry): suppressed
[5]
  effect on Prl-RFP expression: no effect
[1]; [9]
  reduction in pituitary POMC-eGFP expression compared with controls: approximately 40%
[1]; 50 μM, 18 to 48 hpf, Tg:Pomc-Pttg, POMC-eGFP embryos
  reduction of POMC-eGFP expression compared with control: greater than 50%
[6]; at 24 and 48 hours
  number of viable cells (Wst-1): decreased number of viable cells
[6]; by 24 hours
  cell number: decreased cell number
Zebrafish embryos
  embryonic growth / development of treated embryos: no apparent growth defect
[7]
  reduction in plasma ACTH levels: > 50%
  reduction in serum corticosterone levels: ~50%

## CN1CC[C@@H](c2c(O)cc(O)c3c(=O)cc(-c4ccccc4Cl)oc23)[C@H](O)C1 [flavopiridol, 2-(2-chlorophenyl)-5,7-dihydroxy-8-((3S,4S)-3-hydroxy-1-methylpiperidin-4-yl)-4H-chromen-4-one]
Zebrafish embryos
  embryonic growth / development of treated embryos: early developmental defect; also recorded: retarded early embryonic development

## Cn1cnc2c(NCc3ccccc3)nc(NCCO)nc21 [olomoucine]
[1]; [9]
  reduction in pituitary POMC-eGFP expression compared with controls: approximately 20%
[1]; 50 μM, 18-40 hpf, n=7, control 1.0±0.08
  relative expression of pituitary POMC-eGFP fluorescence (mean±S.E.): 0.8±0.07
Zebrafish embryos
  embryonic growth / development of treated embryos: no apparent growth defect

## insulin: insulin injected intraperitoneally for insulin tolerance test
[8]; Tg:Pomc-Pttg fish, up to 90 minutes after injection
  blood glucose response to intraperitoneal insulin: no significant change
[8]; WT fish, 30 minutes after injection
  blood glucose response to intraperitoneal insulin: brisk hypoglycemic response
